From patent publication US20170354721A1, “WOUND HEALING COMPOUND” (priority 2016, published 2017)

How the values were obtained:
[1] = test system: ancef sensitive organisms; settings: in the lab; cited from earlier work
[2] = test system: ancef sensitive organisms; test: Minimum bactericidal concentration (MBC) of ancef; format: cell-based
Experimental: In an operating room setting, the vancomycin is reconstituted at room temperature (˜25° C.). […] To insure the Minimal Inhibitory Concentration (MIC) for vancomycin is exceeded, the total amount of vancomycin added to the mixture ranges from 1 mg to 5000 mg with the preferred amount being 500 mg for a 10 ml syringe, 750 mg for a 15 ml syringe, and 1000 for a 20 ml syringe. People having skill in the art will recognize that the concentrations of vancomycin can be adjusted for different sized syringes. The reconstituted vancomycin is added to the thrombin-flowable agent mixture to form a wound healing compound (“compound”). The compound is applied directly to the target wound. The Minimum Inhibitory Concentration (MIC) is defined as the lowest concentration of antimicrobial that will inhibit the visible growth of a microorganism after an overnight incubation. Related to this is the minimum bactericidal concentration (MBC), which is the lowest concentration of antimicrobial agent that will prevent the growth of an organism after subculture on to antibiotic free media.
Depending on the infection agent, other antibiotics may be added to the mixture to form the wound healing compound. In the lab, ancef sensitive organisms are inhibited at an MIC ranging from 1-4 mcg/ml. However, ancef is bactericidal a four times the MIC. […]

[3] = test system: all ranges of bacterial infection; settings: in water or saline; cited from earlier work

In the case of `Cc1nnc(SCC2=C(C(=O)O)N3C(=O)[C@@H](NC(=O)Cn4cnnn4)[C@H]3SC2)s1` [ancef], the MIC [1] is listed as 1 to 4 µg/mL and the “preferred concentration (the MBC), bactericidal at four times the MIC” value [2] is listed as “at least 16 mcg/ml”.

For `CN[C@H](CC(C)C)C(=O)N[C@H]1C(=O)N[C@@H](CC(N)=O)C(=O)N[C@H]2C(=O)N[C@H]3C(=O)N[C@H](C(=O)N[C@H](C(=O)O)c4cc(O)cc(O)c4-c4cc3ccc4O)[C@H](O)c3ccc(c(Cl)c3)Oc3cc2cc(c3O[C@@H]2O[C@H](CO)[C@@H](O)[C@H](O)[C@H]2O[C@H]2C[C@](C)(N)[C@H](O)[C@H](C)O2)Oc2ccc(cc2Cl)[C@H]1O` [Vancomycin, vancomycin], the “concentration at which most effective if all ranges of bacterial infection are to be inhibited” value [3] is listed as ≥ 16 µg/mL.
